Here are results for two compounds from patent US20100160391A1, “Substituted Aminopyridines as Fluorescent Reporters for Amide Hydrolases” (priority 2006, published 2010).

Usually melting point stands for the temperature, or range, at which the solid turns liquid.

In series [1] the target is T1, human FAAH, microsomes from FAAH cells (Homo sapiens, UniProt O00519).
T1 construct: made in house; host or cells: Trichoplusia ni High Five cells infected with recombinant baculovirus Ac-hFAAH; microsomal fraction
T1 sequence (O00519 1-579): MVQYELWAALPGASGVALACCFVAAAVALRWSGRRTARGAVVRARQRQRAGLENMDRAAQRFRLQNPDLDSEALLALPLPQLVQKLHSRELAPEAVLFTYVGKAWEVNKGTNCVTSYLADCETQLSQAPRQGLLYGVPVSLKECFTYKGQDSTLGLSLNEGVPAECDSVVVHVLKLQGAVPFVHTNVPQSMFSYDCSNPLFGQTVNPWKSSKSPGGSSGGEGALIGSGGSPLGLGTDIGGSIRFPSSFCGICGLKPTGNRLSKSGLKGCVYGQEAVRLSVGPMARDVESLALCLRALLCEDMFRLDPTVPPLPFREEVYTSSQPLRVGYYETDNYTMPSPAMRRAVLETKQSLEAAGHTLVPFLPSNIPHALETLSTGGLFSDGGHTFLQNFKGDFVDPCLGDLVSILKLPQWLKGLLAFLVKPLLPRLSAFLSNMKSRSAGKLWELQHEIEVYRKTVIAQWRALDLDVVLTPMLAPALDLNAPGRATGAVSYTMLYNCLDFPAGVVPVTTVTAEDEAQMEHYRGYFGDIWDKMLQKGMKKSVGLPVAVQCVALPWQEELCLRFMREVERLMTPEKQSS
Description: Specific activity, microsomes from FAAH cells. The format is biochemical. On the procedure: (§1) Preparation of recombinant human FAAH. Transgenic expression of the human FAAH in a baculovirus system was performed by following the method described in Nishi et al., Arch. Biochem. Biophys., 445:115-123 (2006). The cDNA encoding human FAAH (GenBank Accession No. NM_001441) was amplified by PCR using a human liver cDNA library (Invitrogen; Carlsbad, Calif.) as a template. The primer pair was 5′-[…]-3′ and 5′-[…]-3′. BglII and EcoRI endonuclease sites (underlined) were incorporated just upstream of the start codon and downstream of the stop codon of the coding sequence of FAAH, respectively. The PCR products were cloned into a pCR2.1 vector (Invitrogen) and the nucleotide sequence was verified by DNA sequencing. The cDNA fragments were then excised and directionally ligated to the BglII and EcoRI sites of the baculovirus transfer vector pAcUW21 (Lopez-Ferber et al., Baculovirus transfer vectors, in “Baculovirus Expression Protocols,” Richardson (Ed.), pp 25-63, Humana Press, Totowa, N.J., 1995). Recombinant baculoviruses harboring the human FAAH gene, Ac-hFAAH, were generated by co-transfection of Spodoptera frugiperda-derived Sf21 cells with the recombinant transfer vector plasmid and Bsu36I-cleaved BacPAK6 viral DNA (Clontech Laboratories; Mountain View, Calif.) as described in O'Reilly et al., Baculovirus Expression Vectors: A Laboratory Manual, Oxford University Press, New York, 1992. Trichoplusia ni-derived High Five cells (1×10^6 cells/ml) were inoculated with a high titer of Ac-hFAAH. At 72 hours post-infection, the infected cells were harvested by centrifugation at 2,000×g for 20 min at 4° C. and suspended in 50 mM Tris-HCl (pH 8.0) containing 150 mM NaCl, 1 mM EDTA, 1 μM pepstatin, 100 μM leupeptin, and 0.1 mg/ml aprotinin. The cell suspension was then homogenized using a Polytron homogenizer and centrifuged at 10,000×g for 20 min at 4° C. The microsomal fraction was collected by ultracentrifugation of the supernatant at 100,000×g for 60 min at 4° C. The pellet was resuspended in 20 mM Tris-HCl (pH 8.0) containing 10% (w/v) glycerol and 1% (w/v) Triton-X 100 and stored at −80° C. until use.
(§2) Comparison of the lowest detection limits of protein concentration of FAAH toward colorimetric and fluorescent substrates. In general, all assays were performed in 96-well styrene flat-bottom microtiter plates with a Spectra Max M2 spectrophotometer at 37° C. for […]. The total volume of each well was 201 μl consisting of 0.1 M sodium phosphate buffer (pH 8.0) (190 μl) containing 1% glycerol and 0.1% Triton-X 100, stock or diluted protein solution (10 μl), and the substrate solution (1 μl) in ethanol (final concentration 200 μM for 10, 11, 13 or 14) or in DMSO (final concentration 25 μM for 12, 15, or 16; 50 μM for 17). The lowest detection limits of microsomal fatty acid amide hydrolase (FAAH) by substrates were determined by the fact that the signal at 10 min after kinetic measurements are equal to or over three times the noise or basal line at 0 min. Colorimetric substrate (16) assays were performed in clear 96-well microtititer plates using an absorbance wavelength at 382 nm. The fluorescent substrates containing 5-amino-2-methoxypyridine (e.g., 10, 13) were measured at an excitation wavelength (302 nm), emission wavelength (396 nm), and auto cutoff wavelength (325 nm). Similarly, the fluorescent substrates containing 5-amino-2-methoxy-6-methylpyridine (e.g., 11, 14, and 17) were measured at an excitation wavelength (304 nm), emission wavelength (392 nm), and an auto cutoff wavelength of 325 nm. In addition, an excitation wavelength (366 nm), emission wavelength (496 nm), and auto cutoff wavelength (495 nm) were used for the substrates (e.g., 12 and 15) containing 7-amino-4-trifluoromethyl coumarin.
Specific activity determination. The assays for specific activities were performed as described above for the sensitivity assay. […]

The test system of the next series is amidases, human liver S9. Description: Specific activity, human liver S9. The series is classed as biochemical. Conditions: pH 8.0, 37° C.; NM = not measurable at the same protein concentration as other substrates. On the procedure: as §2, with “Similarly, the fluorescent substrates containing 5-amino-2-methoxy-6-methylpyridine (e.g., 11, 14, and 17) were measured at an excitation wavelength (304 nm), emission wavelength (392 nm), and an auto cutoff wavelength of 325 nm. In addition, an excitation wavelength (366 nm), emission wavelength (496 nm), and auto cutoff wavelength (495 nm) were used for the substrates (e.g., 12 and 15) containing 7-amino-4-trifluoromethyl coumarin.” left out

The test system of series [2] is amidases, human liver microsomes. Description: Specific activity, human liver microsomes. The format is biochemical. The procedure:
as §2
Specific activity determination. The assays for specific activities were performed as described above for the sensitivity assay. The specific activity presented is based on the following: 1) the signal after a 10 min enzymatic reaction was at least 3 fold the baseline signal at 0 min, and 2) the amount of hydrolyzed substrate during a 10 min period was less than 10% of the total amount of the substrate added. To correct for protein-induced fluorescence quenching, a standard curve of 5-amino-2-methoxypyridine (6) or 5-amino-2-methoxy-6-methylpyridine (8) was constructed in the presence of the same protein concentration used for the assay of that enzyme.
(Liver microsomes are vesicles of endoplasmic reticulum, rich in cytochrome P450 enzymes.)

Series [3] can be described thus: Comparison of aqueous solubility of substrates (absorbance at 800 nm). The settings on record: 0.1 M phosphate buffer (pH 8.0), 1% ethanol, 37° C. The format is physicochemical. On the procedure:
Comparison of aqueous solubility of substrates. The aqueous solubility of the aminopyridine derivatives (e.g., 13, 14) and the 7-aminocoumarin derivative (e.g., 15) was determined in clear 96-well styrene flat-bottom microtiter plates with a Spectra Max M2 spectrophotometer. Different concentrations of the substrates (13, 14 and 15; final concentration: 0.39, 0.78, 1.56, 3.13, 6.25, 12.5, 25, 50, 100, or 200 μM) in 200 μl 0.1 M sodium phosphate buffer (1% ethanol; pH 8.0) were used and the absorbance was recorded at a wavelength of 800 nm at 37° C. The measurements were performed in three replicates for each concentration.

Series [4] relates to amidases, microsomes from High Five cells. Description: Specific activity, microsomes from High Five cells. Conditions: pH 8.0, 37° C.; NM = not measurable at the same protein concentration as other substrates.
Description: Preparation of recombinant human FAAH. Transgenic expression of the human FAAH in a baculovirus system was performed by following the method described in Nishi et al., Arch. […] The cDNA encoding human FAAH (GenBank Accession No. NM—001441) was amplified by PCR using a human liver cDNA library (Invitrogen; Carlsbad, Calif.) as a template. The primer pair was 5′-[sequence]-3′ and 5′-[sequence]-3′. BglII and EcoRI endonuclease sites (underlined) were incorporated just upstream of the start codon and downstream of the stop codon of the coding sequence of FAAH, respectively. The PCR products were cloned into a pCR2.1 vector (Invitrogen) and the nucleotide sequence was verified by DNA sequencing. The cDNA fragments were then excised and directionally ligated to the BglII and EcoRI sites of the baculovirus transfer vector pAcUW21 (Lopez-Ferber et al., Baculovirus transfer vectors, in “Baculovirus Expression Protocols,” Richardson (Ed.), pp 25-63, Humana Press, Totowa, N.J., 1995). Recombinant baculoviruses harboring the human FAAH gene, Ac-hFAAH, were generated by co-transfection of Spodoptera frugiperda-derived Sf21 cells with the recombinant transfer vector plasmid and Bsu36I-cleaved BacPAK6 viral DNA (Clontech Laboratories; Mountain View, Calif.) as described in O'Reilly et al., Baculovirus Expression Vectors: A Laboratory Manual, Oxford University Press, New York, 1992. Trichoplusia ni-derived High Five cells (1×10^6 cells/ml) were inoculated with a high titer of Ac-hFAAH. At 72 hours post-infection, the infected cells were harvested by centrifugation at 2,000×g for 20 min at 4° C. and suspended in 50 mM Tris-HCl (pH 8.0) containing 150 mM NaCl, 1 mM EDTA, 1 μM pepstatin, 100 μM leupeptin, and 0.1 mg/ml aprotinin. The cell suspension was then homogenized using a Polytron homogenizer and centrifuged at 10,000×g for 20 min at 4° C. […]
Comparison of the lowest detection limits of protein concentration of FAAH toward colorimetric and fluorescent substrates. […] The lowest detection limits of microsomal fatty acid amide hydrolase (FAAH) by substrates were determined by the fact that the signal at 10 min after kinetic measurements are equal to or over three times the noise or basal line at 0 min. Colorimetric substrate (16) assays were performed in clear 96-well microtititer plates using an absorbance wavelength at 382 nm. The fluorescent substrates containing 5-amino-2-methoxypyridine (e.g., 10, 13) were measured at an excitation wavelength (302 nm), emission wavelength (396 nm), and auto cutoff wavelength (325 nm). Similarly, the fluorescent substrates containing 5-amino-2-methoxy-6-methylpyridine (e.g., 11, 14, and 17) were measured at an excitation wavelength (304 nm), emission wavelength (392 nm), and an auto cutoff wavelength of 325 nm. […]
Series [5] addresses T2, microsomal fatty acid amide hydrolase (FAAH) (Homo sapiens, UniProt O00519).
T2 construct: made in house; host or cells: Trichoplusia ni High Five cells infected with recombinant baculovirus Ac-hFAAH; microsomal fraction
T2 sequence (O00519 1-579): T1 sequence (O00519 1-579)
As to the kind of experiment: Lowest detection limits of microsomal FAAH toward colorimetric and fluorescent substrates. The format is biochemical. The procedure:
as §1, §2

A short description of series [6]: Molar extinction coefficient of fluorescent reporters. The series is classed as physicochemical. The settings on record: H2O containing 1% ethanol, 290 nm, 30° C., 10-50 μM. On the procedure: Molar extinction coefficient. According to Beer's law, Aλ=ε*C*L, where Aλ is the absorbance at wavelength (λ nm); ε is called the molar extinction coefficient; L is the width of the sample cuvette; and C is the concentration of the solute. In this example, a series of concentrations falling between 10 and 50 μM (final concentration) for each fluorescent reporter was used for determination of the molar extinction coefficient. Assays were performed in a quartz cuvette (1 cm optical passage). 10 μl of a stock solution of a reporter in ethanol (1, 2, 3, 4, or 5 mM) was added to 990 μl H2O. The resulting mixture was degassed by sonication with ultrasonic cleaner Model 750 (VWR International; Wester, Pa.) for 10 seconds at a power level of 9. Measurements were performed with a Spectra Max M2 spectrophotometer (Molecular Devices; Sunnyvale, Calif.) at a wavelength of 290 nm. A slope (or extinction coefficient) was obtained by using an average absorbance of triplicate samples.

A short description of series [7]: Maximal excitation and emission wavelengths. The format is physicochemical. The settings on record: 50 μM in 0.1 M phosphate buffer, 30° C.; SD ±2 nm. On the procedure: Maximal excitation and emission wavelengths. A stock solution in ethanol of each compound (10 μl, 5 mM) was added to 990 μl of sodium phosphate buffer (0.1 M, pH 8.0, final substrate concentration 50 μM) in a 1-cm quartz cuvette. The quartz cuvette was scanned from 200 to 500 nm for absorption spectra with a Spectra Max M2 spectrophotometer. Maximal excitation and emission wavelengths were obtained from scanning from 250 to 600 nm and 360 to 600 nm by a 2 nm interval at 30° C., respectively.

For series [8] the following is noted: cited from earlier work; for ØF, fluorescence quantum yield: in water, literature value.
For series [9] the following is noted: 3-aminopyridine in water, from Weisstuch et al.; cited from earlier work.
Where [10] appears, read: pH 8.0, 37° C., NM = not measurable at the same protein concentration as other substrates.

Like-named read-outs stand apart in the source and are kept apart here. Marks after values point to notes of the source that are not given here.

Take `CCCCCCCC(=O)Nc1ccc(OC)nc1C` [Compound 14, N-(6-methoxy-2-methylpyridin-3-yl) octanamide]: the melting point lay in the range of 67.4 to 68.2 °C. Moreover, the “enhancement of activity, microsomes from FAAH-expressing cells compared with High Five cells” value in series [1] was found to be 31 times. In series [1] (setting [10]), the “Specific activity, Microsomes from FAAH cells” value was 19.0 ± 0.5 nmol/min/mg protein. The “Specific activity, Human liver S9” value in the series on amidases, human liver S9 is on record as 0.42 ± 0.01 nmol/min/mg protein. Besides, the “preference of human liver microsomes for substrate (14) over (13)” value in [2] (Table 4) is reported as “at least 15 times”. Further, in [2] (setting [10]), the “Specific activity, Human liver microsomes” value amounted to 6.90 ± 0.25 nmol/min/mg protein. The “aqueous solubility compared with coumarin substrate (15)” value in series [3] is “much higher solubility”. The “Specific activity, Microsomes from High Five cells” value in series [4] was determined as 591 ± 18.4 pmol/min/mg protein. Also, the “base line, Average” value in series [5] (0 min, protein 0.11 (13), 0.67 (14), 100 (15), 0.5 (17) μg/well, 200 μM (13),(14), 25 μM (15), 50 μM (17)) was 194 RFU. The “signal, Average” value in series [5] (10 min, protein 0.11 (13), 0.67 (14), 100 (15), 0.5 (17) μg/well, 200 μM (13),(14), 25 μM (15), 50 μM (17)) is listed as 728* RFU. Besides, the “Protein, lowest detection limit of microsomal FAAH (signal at 10 min ≥ three times base line)” value in series [5] (pH 8.0, 37° C., 200 μM (13), (14), 50 μM (17)) is on record as 0.67 μg/200 μ′. Besides, the “lowest detection limit of protein” value in series [5] (signal at 10 min equal to three times base line) is listed as 3.3 μg protein/ml.

With `Nc1cccnc1` [Compound 1, 3-aminopyridine], the “εmax, molar extinction coefficient” value is 2890 M⁻¹ cm⁻¹ in series [6] and 2800 M⁻¹ cm⁻¹ in series [9]. The “Em, maximal emission wavelength” value in [7] is given as 378 nm. In addition, in series [7], the “Ex, maximal excitation wavelength” value was determined as 286 nm. Further, the quantum yield is 1.07 in series [8] (in 0.1 NH2SO4, Rusakowicz et al.) and 0.03 in [8] (in 1 N NaOH, Rusakowicz et al.). For the same compound, the figures for the “ØF, fluorescence quantum yield” value in [8] and in series [8] (listed as 3-aminopyridine) were 0.32^d and 0.32, respectively.
